Laboratory results taken from patent US12673035B2, “Solid dosage forms of elafibranor” (Genfit, priority 2023, dated 2026).

Key:
mouse = experiment: Acute toxicity study, single oral doses, mouse; assay type: in vivo
Method: (§1) According to acute toxicity study results, it can be concluded that elafibranor is extremely safe when administered as single oral doses in rat and mouse, since no sign of toxicity was detected up to the dose of 1000 mg/kg.

[1] = tested on: patients with PBC with an inadequate response or intolerance to Ursodeoxycholic acid (UDCA); experiment: Phase 3 double-blind, randomized, placebo-controlled trial in PBC; assay type: in vivo, human; settings: 80 mg once daily
Method: This example describes a double-blind, randomized, placebo-controlled trial to evaluate the efficacy and safety of elafibranor 80 mg once daily (qd) versus placebo in a PBC population.
The study included a screening visit, followed by 52 weeks of double-blind treatment period. Patients attended study visits at randomization, Week 4, 13, 26, and 39 during the treatment period.
Elafibranor was administered per os, once daily at 80 mg, for 52 weeks, in the form of tablets of the invention (Formulation 4). The elafibranor 80 mg tablets contained elafibranor (active ingredient) and excipients (microcrystalline cellulose, povidone, croscarmellose, anhydrous colloidal silica, magnesium stearate, Opadry® II white). The white tablets were provided to the participants in aluminum blisters.
The primary objectives were to compare the effect of daily oral administration of elafibranor 80 mg on changes in relevant biochemical indicators of cholestasis or in pruritus to that of placebo in patients with PBC with an inadequate response or intolerance to Ursodeoxycholic acid (UDCA).

[2] = tested on: patients with PBC with an inadequate response or intolerance to Ursodeoxycholic acid (UDCA); settings: phase 3 trial NCT04526665, N Engl J Med 2023; cited from earlier work
[3] = tested on: liver function of subjects; experiment: Phase 2a clinical studies and Phase 2b clinical trial, liver function; assay type: in vivo, human; settings: 80 mg/day for 1 to 3 months (Phase 2a); 80 mg/day and 120 mg/day for 12 months (Phase 2b)
rat = experiment: Acute toxicity study, single oral doses, rat; assay type: in vivo
Method: as §1

[4] = tested on: patients with PBC and inadequate response to Ursodeoxycholic acid (UDCA); experiment: Phase 2 double-blind, randomized, placebo-controlled trial in PBC; assay type: in vivo, human; settings: for mean relative change from baseline to endpoint in serum ALP / median relative change from baseline to endpoint in the pruritus VAS / treatment effect estimate vs placebo, serum ALP (supportive analysis, ANCOVA with baseline ALP as covariate) / mean relative change from baseline to endpoint in GGT / treatment effect estimate vs placebo, GGT (non-parametric randomization-based ANCOVA) / response rates defined by at least 10%, 20% and 40% decrease in ALP from baseline to endpoint, compared to placebo: 12 weeks; for mean relative change from baseline to endpoint in GGT / treatment effect estimate vs placebo, GGT (non-parametric randomization-based ANCOVA) / response rates defined by at least 10%, 20% and 40% decrease in ALP from baseline to endpoint, compared to placebo: mITT set; for response rates defined by at least 10%, 20% and 40% decrease in ALP from baseline to endpoint, compared to placebo: Fishers exact test, p<0.001; for response rate as defined by Paris I risk scores (ALP≤3×ULN, AST≤2×ULN, bilirubin within normal limits) / response rate as defined by Paris II risk scores (ALP≤1.5×ULN, AST≤1.5×ULN, bilirubin within normal limits) / response rate as defined by Toronto I risk scores (ALP≤1.67×ULN) / response rate as defined by Toronto II risk scores (ALP≤1.75×ULN): baseline to endpoint
Method: This example describes a double-blind, randomized, placebo-controlled trial to evaluate the efficacy and safety of elafibranor 80 mg and 120 mg once daily (qd) versus placebo in a PBC population.
The study included a screening visit, followed by 12 weeks of double-blind treatment period. Patients attended study visits at randomization, Week 2, 4, 8, 12 during the treatment period.
Elafibranor was administered per os, once daily at 80 mg or 120 mg, for 12 weeks, in the form of tablets of the invention (Formulations 4 and 3). The elafibranor 120 mg and 80 mg tablets contained elafibranor (active ingredient) and excipients (microcrystalline cellulose, povidone, croscarmellose, anhydrous colloidal silica, magnesium stearate, Opadry® II white). The white tablets were provided to the participants in aluminum blisters.
The primary objectives were to compare the effect of daily oral administration of elafibranor 80 mg and 120 mg on changes in serum alkaline phosphatase (ALP) to that of placebo in patients with PBC and inadequate response to Ursodeoxycholic acid (UDCA).
The primary endpoint of the study was to evaluate the efficacy of elafibranor 80 mg or 120 mg with respect to relative change from baseline in serum ALP levels compared to placebo.
Absolute changes in serum ALP levels were monitored from Baseline to week 2, 4, 8 and 12.
The treatment effect estimate was −52.0% (95% CI [−62.5; −41.5]) for the elafibranor 80 mg treatment group and −43.9% (95% CI [−55.7; −32.1]) for the elafibranor 120 mg treatment group.
The primary efficacy supportive analysis conducted using an ANCOVA with baseline ALP as a covariate was consistent with the primary efficacy analysis. The treatment effect estimate was −51.4% (95% CI [−63.3; −39.5]) for the elafibranor 80 mg treatment group and −43.9% (95% CI [−55.8; −31.9]) for the elafibranor 120 mg treatment group.
The percentage of patients was calculated who met the definition of PBC responder criteria applying the Paris I, Toronto I, Toronto II, […], Mayo II, and Barcelona disease prognostic risk criteria. Paris I risk scores were defined as ALP≤3×ULN and AST≤2×ULN and bilirubin within normal limits.
Paris II risk scores were defined as ALP≤1.5×ULN and AST≤1.5×ULN and bilirubin within normal limits.
Toronto I risk scores were defined as ALP≤1.67×ULN.
Toronto II risk scores were defined as ALP≤1.75×ULN.
Considering that pruritus is a preeminent adverse event in subjects with PBC, assessment of pruritus was also considered. More specifically, the change from baseline in pruritus (through 5D-itch scale (measuring the degree, duration, direction [improvement or worsening], disability [effect on daily activities], and distribution of itching) and visual analogue scale for pruritus (VAS).
The 5D-itch scale is a reliable, multidimensional measure of itching that has been validated in patients with chronic pruritus to detect changes over time (Elman S, et al., The 5-D itch scale: a new measure of pruritus. Br J Dermatol. 2010; 162(3):587-593). The VAS is a reliable and validated method of pruritus assessment (Reich A, et al., Visual analogue scale: evaluation of the instrument for the assessment of pruritus. Acta Derm Venereol. 2012; 92(5):497-501).

[5] = Particle size analysis of jet-milled (micronized) elafibranor; assay type: physicochemical
From the text: Particle size of agglomeration was identified as playing a primary role in the dissolution and variability in the blend uniformity and content uniformity of tablet formulations. In order to obtain suitable particle size distribution, milling of elafibranor was investigated. The micronisation process acts to accelerate grains of powder, with an air jet, in a tornado like flow path within the micronisation chamber of the mill. As particles travel in the circular path, they collide, which leads to a reduction in particle size. Centrifugal force directs larger particles to the outside of the chamber and smaller particles are concentrated in the centre of the mill where they can be transferred to the outlet when the appropriate particle size has been reached.
The micronisation process of elafibranor has been performed with the following jet-mill equipment: Microniser Alpine 200 Aeroplex in ambient conditions of temperature and hygrometry.
The feeder delivers the dosage to the microniser by two screws. This system allows a regularity of the flow. A disposable sleeve is used to separate the air and the micronised product at the end of the microniser.
The micronised elafibranor powder is then collected into polyethylene bags and the obtained weight at the end of the micronisation operation has been recorded.
acceptance criteria: D50%≤5 μm and D90%≤15 μm

[6] = mean of clinical batches #1 to #7

CSc1ccc(C(=O)/C=C/c2cc(C)c(OC(C)(C)C(=O)O)c(C)c2)cc1 [elafibranor, 2-[2,6-dimethyl-4-[(E)-3-(4-methylsulfanylphenyl)-3-oxoprop-1-enyl]phenoxy]-2-methylpropanoic acid]
dose up to which no sign of toxicity was detected (mouse): ≥ 1000 mg/kg
biochemical response (primary end point), patients ([1]; 52 weeks (Formulation 4), 55 of 108 patients): 51%
difference vs placebo in biochemical response ([1]; 52 weeks, 95% CI 32 to 57): 47 percentage points
patients in whom the alkaline phosphatase level normalized ([1]; at week 52): 15%
difference vs placebo in alkaline phosphatase normalization ([1]; at week 52, 95% CI 6 to 23): 15 percentage points
difference vs placebo in least-squares mean change on the WI-NRS ([1]; through week 52, moderate-to-severe pruritus, 95% CI −1.99 to 0.42, P=0.20): −0.78
least-squares mean change from baseline through week 52 on the WI-NRS ([1]; patients with moderate-to-severe pruritus): −1.93
improvements in relevant biochemical indicators of cholestasis vs placebo [2]: significantly greater improvements in relevant biochemical indicators of cholestasis than placebo
effects on liver function, relevant to PBC [3]: Beneficial effects
dose up to which no sign of toxicity was detected (rat): ≥ 1000 mg/kg
treatment effect estimate vs placebo, relative change from baseline in serum ALP (primary analysis, non-parametric randomization-based ANCOVA) ([4]; 80 mg once daily per os, 12 weeks (Formulation 4 tablets)): −52.0%
mean relative change from baseline to endpoint in serum ALP ([4]; 80 mg once daily): −48.3%
median relative change from baseline to endpoint in the pruritus VAS ([4]; 80 mg once daily): −23.7%
treatment effect estimate vs placebo, serum ALP (supportive analysis, ANCOVA with baseline ALP as covariate) ([4]; 80 mg once daily): −51.4%
mean relative change from baseline to endpoint in GGT ([4]; 80 mg once daily): −37.1%
treatment effect estimate vs placebo, GGT (non-parametric randomization-based ANCOVA) ([4]; 80 mg once daily): −38.6%
response rates defined by at least 10%, 20% and 40% decrease in ALP from baseline to endpoint, compared to placebo ([4]; 80 mg once daily): statistically significantly greater proportion of responders
response rate as defined by Paris I risk scores (ALP≤3×ULN, AST≤2×ULN, bilirubin within normal limits) ([4]; 80 mg once daily): 80.0%
response rate as defined by Paris II risk scores (ALP≤1.5×ULN, AST≤1.5×ULN, bilirubin within normal limits) ([4]; 80 mg once daily): 53.3%
response rate as defined by Toronto I risk scores (ALP≤1.67×ULN) ([4]; 80 mg once daily): 66.7%
response rate as defined by Toronto II risk scores (ALP≤1.75×ULN) ([4]; 80 mg once daily): 66.7%
treatment effect estimate vs placebo, relative change from baseline in serum ALP (primary analysis, non-parametric randomization-based ANCOVA) ([4]; 120 mg once daily per os, 12 weeks (Formulation 3 tablets)): −43.9%
mean relative change from baseline to endpoint in serum ALP ([4]; 120 mg once daily): −40.6%
median relative change from baseline to endpoint in the pruritus VAS ([4]; 120 mg once daily): −49.5%
treatment effect estimate vs placebo, serum ALP (supportive analysis, ANCOVA with baseline ALP as covariate) ([4]; 120 mg once daily): −43.9%
mean relative change from baseline to endpoint in GGT ([4]; 120 mg once daily): −40.0%
treatment effect estimate vs placebo, GGT (non-parametric randomization-based ANCOVA) ([4]; 120 mg once daily): −39.9%
response rates defined by at least 10%, 20% and 40% decrease in ALP from baseline to endpoint, compared to placebo ([4]; 120 mg once daily): statistically significantly greater proportion of responders
response rate as defined by Paris I risk scores (ALP≤3×ULN, AST≤2×ULN, bilirubin within normal limits) ([4]; 120 mg once daily): 78.6%
response rate as defined by Paris II risk scores (ALP≤1.5×ULN, AST≤1.5×ULN, bilirubin within normal limits) ([4]; 120 mg once daily): 50.0%
response rate as defined by Toronto I risk scores (ALP≤1.67×ULN) ([4]; 120 mg once daily): 78.6%
response rate as defined by Toronto II risk scores (ALP≤1.75×ULN) ([4]; 120 mg once daily): 78.6%

CSc1ccc(C(=O)/C=C/c2cc(C)c(OC(C)(C)C(=O)O)c(C)c2)cc1 [micronized elafibranor]
D50% ([5]; clinical batch #1): 2.387 μm
D90% ([5]; clinical batch #1): 6.292 μm
D50% ([5]; clinical batch #2): 3.511 μm
D90% ([5]; clinical batch #2): 10.06 μm
D50% ([5]; clinical batch #3): 2.53 μm
D90% ([5]; clinical batch #3): 6.439 μm
D50% ([5]; clinical batch #4): 4.079 μm
D90% ([5]; clinical batch #4): 10.895 μm
D50% ([5]; clinical batch #5): 2.171 μm
D90% ([5]; clinical batch #5): 6.589 μm
D50% ([5]; clinical batch #6): 2.089 μm
D90% ([5]; clinical batch #6): 6.495 μm
D50% ([5]; clinical batch #7): 2.523 μm
D90% ([5]; clinical batch #7): 6.671 μm
D50% mean [5, 6]: 2.756 μm
D90% mean [5, 6]: 7.634 μm
